From PubChem BioAssay AID248 (DTP/NCI, 2004)
Values joined by “and” are separate entries in the source; they are usually repeats but may differ in a detail not shown here. Identical values can stand only once. Inconclusive results and toxic doses are left out. No stated cut-off is given here; in the data, active means T/C of 150% or more; inactive means T/C below 125%.

System: L1210 leukemia ip in BDF1 mice, survival T/C
Assay: NCI In Vivo Anticancer Drug Screen. Data for tumor model L1210 Leukemia (intraperitoneal) in B6D2F1 (BDF1) mice
Settings: endpoint: mean survival time, higher = longer survival
Summary of the method: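 Transplanted-tumor mice were given test agent; controls received vehicle only. Survival readings from the two groups were divided (treated over control).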

[1] = dose: 100.0 mg/kg/injection, schedule: Q01DX001 (ip), vehicle: saline with Tween-80
[2] = dose: 100.0 mg/kg/injection, schedule: Q01DX009 (ip), vehicle: saline with Tween-80
[3] = dose: 200.0 mg/kg/injection, schedule: Q01DX001 (ip), vehicle: saline with Tween-80
[4] = dose: 200.0 mg/kg/injection, schedule: Q01DX009 (ip), vehicle: saline with Tween-80
[5] = dose: 200.0 mg/kg/injection, schedule: Q04DX003 (ip), vehicle: saline with Tween-80
[6] = dose: 400.0 mg/kg/injection, schedule: Q01DX001 (ip), vehicle: saline with Tween-80
[7] = dose: 400.0 mg/kg/injection, schedule: Q04DX003 (ip), vehicle: saline with Tween-80
[8] = dose: 100.0 mg/kg/injection, schedule: Q04DX003 (ip), vehicle: saline
[9] = dose: 25.0 mg/kg/injection, schedule: Q04DX003 (ip), vehicle: saline
[10] = dose: 50.0 mg/kg/injection, schedule: Q04DX003 (ip), vehicle: saline
[11] = dose: 100.0 mg/kg/injection, schedule: Q04DX003 (ip), vehicle: Klucel (hydroxypropylcellulose) (HPC)
[12] = dose: 200.0 mg/kg/injection, schedule: Q04DX003 (ip), vehicle: Klucel (hydroxypropylcellulose) (HPC)
[13] = dose: 400.0 mg/kg/injection, schedule: Q04DX003 (ip), vehicle: Klucel (hydroxypropylcellulose) (HPC)

Measured: T/C

Cc1ccc(C(C)(O)c2cnc(C)n2Cc2ccccc2)cc1 (stereo unspecified)
inactive: [1] 97 % of control | [2] 95 % of control and 113 % of control | dose: 100.0 mg/kg/injection, schedule: Q04DX002 (ip), vehicle: saline with Tween-80 110 % of control and 92 % of control | dose: 100.0 mg/kg/injection, schedule: Q04DX003 (ip), vehicle: saline with Tween-80 101 % of control | [3] 97 % of control | [4] 98 % of control and 102 % of control | dose: 200.0 mg/kg/injection, schedule: Q04DX002 (ip), vehicle: saline with Tween-80 95 % of control and 97 % of control | [5] 103 % of control | [6] 91 % of control | dose: 400.0 mg/kg/injection, schedule: Q01DX009 (ip), vehicle: saline with Tween-80 91 % of control and 92 % of control | dose: 400.0 mg/kg/injection, schedule: Q04DX002 (ip), vehicle: saline with Tween-80 103 % of control and 88 % of control | [7] 98 % of control

CC(C)(CO)NCC1CCCC(CNC(C)(C)CO)C1 (stereo unspecified)
inactive: dose: 50.0 mg/kg/injection, schedule: Q01DX001 (ip), vehicle: carboxymethylcellulose (CMC) 92 % of control | dose: 100.0 mg/kg/injection, schedule: Q01DX001 (ip), vehicle: carboxymethylcellulose (CMC) 101 % of control

CN(CC(C)(C)C=O)C(=O)c1ccccc1
inactive: [8] 96 % of control | dose: 200.0 mg/kg/injection, schedule: Q04DX003 (ip), vehicle: saline 103 % of control | dose: 400.0 mg/kg/injection, schedule: Q04DX003 (ip), vehicle: saline 100 % of control

COc1cc(Cl)ccc1NC(=O)Oc1cccc2ccccc12
inactive: dose: 100.0 mg/kg/injection, schedule: Q01DX009 (ip), vehicle: Klucel (hydroxypropylcellulose) (HPC) 89 % of control | dose: 200.0 mg/kg/injection, schedule: Q01DX009 (ip), vehicle: Klucel (hydroxypropylcellulose) (HPC) 101 % of control | dose: 400.0 mg/kg/injection, schedule: Q01DX009 (ip), vehicle: Klucel (hydroxypropylcellulose) (HPC) 95 % of control

O=C(CSc1cc(Cl)ccc1Cl)Nc1ccc(Cl)cc1Cl
inactive: dose: 100.0 mg/kg/injection, schedule: Q04DX003 (ip), vehicle: carboxymethylcellulose (CMC) 92 % of control | dose: 200.0 mg/kg/injection, schedule: Q04DX003 (ip), vehicle: carboxymethylcellulose (CMC) 95 % of control

C=CCc1cc(CN(C)CCO)c(O)c(OC)c1
inactive: [9] 95 % of control | [10] 95 % of control | [8] 91 % of control

Cn1cnc(N)c1S(=O)(=O)Nc1cccc2ccccc12
inactive: dose: 100.0 mg/kg/injection, schedule: Q04DX003 (ip), vehicle: other 100 % of control | dose: 200.0 mg/kg/injection, schedule: Q04DX003 (ip), vehicle: other 102 % of control | dose: 400.0 mg/kg/injection, schedule: Q04DX003 (ip), vehicle: other 101 % of control

CCOc1ccc(/C=C(\NC(=O)c2ccccc2)C(=O)Nc2ccccc2)cc1OC
inactive: [11] 100 % of control | [12] 87 % of control | [13] 91 % of control

Cc1ccc(NC2CNC(=O)NC2=O)cc1C (stereo unspecified)
inactive: dose: 100.0 mg/kg/injection, schedule: Q01DX Z (ip), vehicle: saline 91 % of control | dose: 200.0 mg/kg/injection, schedule: Q01DX Z (ip), vehicle: saline 87 % of control

COc1cc2c(cc1OC)C1=C(CC2)C2CCCN2CC1 (stereo unspecified)
inactive: dose: 6.25 mg/kg/injection, schedule: Q04DX003 (ip), vehicle: saline 100 % of control | dose: 12.5 mg/kg/injection, schedule: Q04DX003 (ip), vehicle: saline 97 % of control | [9] 94 % of control and 105 % of control | [10] 102 % of control

CC(=O)O[C@H]1CC[C@@]2(C)C(=CC[C@H]3[C@@H]4CC[C@H](O)[C@@]4(C)CC[C@@H]32)C1
inactive: [11] 103 % of control | [12] 103 % of control | [13] 96 % of control

Cc1ccc(S(=O)(=O)OC2CCC(N3C(=O)c4ccccc4C3=O)CC2)cc1 (stereo unspecified)
inactive: [1] 100 % of control | [3] 102 % of control | [6] 98 % of control

O=CN/N=C/c1ccc([N+](=O)[O-])cc1
inactive: dose: 75.0 mg/kg/injection, schedule: Q01DX001 (ip), vehicle: saline 92 % of control | dose: 150.0 mg/kg/injection, schedule: Q01DX001 (ip), vehicle: saline 87 % of control | dose: 300.0 mg/kg/injection, schedule: Q01DX001 (ip), vehicle: saline 89 % of control

O=[N+]([O-])c1ccc(/C=C/c2ccccn2)s1
inactive: [11] 96 % of control | dose: 100.0 mg/kg/injection, schedule: Q04DX003 (ip), vehicle: water 101 % of control | [12] 112 % of control | dose: 200.0 mg/kg/injection, schedule: Q04DX003 (ip), vehicle: water 98 % of control | [13] 96 % of control | dose: 400.0 mg/kg/injection, schedule: Q04DX003 (ip), vehicle: water 97 % of control

CC(C)c1ccc2ccccc2c1
inactive: [2] 95 % of control | [4] 107 % of control

Nc1ccc(CCc2[nH]c(N)nc(=S)c2-c2ccc(Cl)cc2)cc1
inactive: [5] 110 % of control | [7] 86 % of control
